Columns and labels:
[1] = tested on: U937 cells; assay: Apoptosis after dual Cdc25C/PP2Acα shRNA knockdown plus lenalidomide, U937 cells; assay type: cell-based; conditions: dual Cdc25C and PP2Acα shRNA knockdown 48 hours, then lenalidomide 5 μM for 48 hours
Method: (§1) FIGS. 2A-2B are images of an RT-PCR gel (FIG. 2A) and Western blot (FIG. 2B) to detect PP2A and Cdc25C gene (FIG. 2A) and protein (FIG. 2B) expression in U937 cells infected with mock (lane 1), lentiviral vectors encoding non-target shRNA control (lane 2), shCdc25C (lane 3), shPP2Acα (lane 4), shCdc25C and PP2Acα (lane 5) and negative for PCR (lane 6) and harvested 48 hours after incubation. FIGS. 2C and 2D are bar graphs showing P2Acα and Cdc25c mRNA expression (copies/GAPDH) in U937 cells infected with mock, lentiviral vectors encoding non-target shRNA control, shCdc25C, shPP2Acα, or shCdc25C and PP2Acα. FIGS. 2E-2F are bar graphs showing apoptosis (%) in U937 cells (E) or BM-MNC (F) that were infected with lentiviral vectors containing various constructs as indicated for 48 hours and then treated with or without lenalidomide at the concentration of […] for additional 48 hours before being analyzed for apoptosis. […]
(§2) U937 cells were infected with mock (lane 1), lentiviral vectors encoding non-target shRNA control (lane 2), shCdc25C (lane 3), shPP2Acα (lane 4), shCdc25C and PP2Acα (lane 5) and negative for PCR (lane 6). […] The U937 cells (FIG. 2C) or BM-MNC (FIG. 2D) were infected with lentiviral vectors containing various constructs as indicated for 48 hours and then treated with or without lenalidomide at the concentration of 5 μM for additional 48 hours before analyzed for apoptosis. […]

[2] = tested on: BM-MNC from non-(del)5q MDS patients; assay: Apoptosis after dual Cdc25C/PP2Acα shRNA knockdown plus lenalidomide, BM-MNC; assay type: cell-based, human; conditions: dual knockdown 48 hours, then lenalidomide 5 μM for 48 hours, p<0.001 vs shRNA control plus lenalidomide, five patients
Method: as §1, §2

[3] = tested on: del5q MDS; conditions: patients with del5q MDS; cited from earlier work

## Nc1cccc2c1CN(C1CCC(=O)NC1=O)C2=O (racemic) [lenalidomide, (RS)-3-(4-Amino-1-oxo 1,3-dihydro-2H-isoindol-2-yl)piperidine-2,6-dione]
[1]
  apoptotic response to lenalidomide: increases apoptotic response
[2]
  apoptotic response to lenalidomide: increases apoptotic response
[3]
  median duration of response: 2.5 years

— US10682417B2, “Targeted sensitization of non-del(5q) malignant cells” (H. LEE MOFFITT CANCER CENTER AND RESEARCH INSTITUTE, INC., priority 2013, dated 2020)
